Measurements: PubChem BioAssay (NCI)
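Assay format: 96-well plates, 48-hour exposure. At the GI50, growth is halved. The concentration for full growth arrest is given as TGI.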

How the values were obtained:
Experiment in all cases: growth of human tumour cells (NCI), 48 h
[1] = system: SNB-75 CNS
[2] = system: MOLT-4 leukemia
[3] = system: HT29 colon
[4] = system: SK-MEL-2 melanoma
[5] = system: SK-MEL-28 melanoma
[6] = system: OVCAR-3 ovarian
[7] = system: SK-OV-3 ovarian
[8] = system: M14 melanoma
[9] = system: HL-60(TB) leukemia
[10] = system: SNB-19 CNS
[11] = system: MCF7 breast
[12] = system: OVCAR-4 ovarian
[13] = system: SN12C renal
[14] = system: T-47D breast
[15] = system: UACC-62 melanoma
[16] = system: NCI-H460 lung
[17] = system: IGROV1 ovarian
[18] = system: NCI-H522 lung
[19] = system: OVCAR-5 ovarian
[20] = system: MALME-3M melanoma
[21] = system: COLO 205 colon
[22] = system: NCI-H226 lung
[23] = system: A549 NSCLC
[24] = system: EKVX NSCLC
[25] = system: OVCAR-8 ovarian
[26] = system: RXF 393 renal
[27] = system: 786-0 renal
[28] = system: HOP-92 NSCLC
[29] = system: CCRF-CEM leukemia
[30] = system: K-562 leukemia

How did the TGI [1] turn out when `COc1cc2c(cc1I)-c1c(cc(OC)c(OC)c1OC)CC[C@@H]2NC(C)=O` was run?
Its TGI is 32600 nM.

What about the GI50 [2] of the same molecule?
Its GI50 is 672 nM.

And the TGI [2]?
The TGI was 25800 nM.

What about the GI50 [3] of the same molecule?
Its GI50 is 294 nM.

And the TGI [3]?
The TGI was 2670 nM.

What about the GI50 [4] of the same molecule?
Its GI50 is 235 nM.

What about the TGI [4] of the same molecule?
The TGI was 858 nM.

And the GI50 [5]?
The GI50 was 344 nM.

And the TGI [5]?
The TGI was 19100 nM.

And the GI50 [6]?
The GI50 was 232 nM.

And the TGI [6]?
Its TGI is 572 nM.

And the GI50 [7]?
Its GI50 is 416 nM.

What about the TGI [7] of the same molecule?
Its TGI is 12600 nM.

What about the GI50 [8] of the same molecule?
Its GI50 is 283 nM.

What about the TGI [8] of the same molecule?
Its TGI is 2650 nM.

What about the GI50 [9] of the same molecule?
Its GI50 is 461 nM.

And the GI50 [10]?
The GI50 was 485 nM.

And the TGI [10]?
The TGI was greater than 41000 nM.

And the GI50 [11]?
Its GI50 is 370 nM.

And the TGI [11]?
The TGI was 20800 nM.

What about the GI50 [12] of the same molecule?
The GI50 was 2240 nM.

What about the TGI [12] of the same molecule?
Its TGI is greater than 100000 nM.

And the GI50 [13]?
Its GI50 is 589 nM.

What about the TGI [13] of the same molecule?
The TGI was 52000 nM.

And the GI50 [14]?
The GI50 was 366 nM.

And the TGI [14]?
The TGI was greater than 100000 nM.

And the GI50 [15]?
The GI50 was 528 nM.

And the TGI [15]?
Its TGI is 30300 nM.

And the GI50 [16]?
The GI50 was 374 nM.

What about the TGI [16] of the same molecule?
Its TGI is 3900 nM.

And the GI50 [17]?
Its GI50 is 323 nM.

What about the TGI [17] of the same molecule?
The TGI was 5430 nM.

What about the GI50 [18] of the same molecule?
The GI50 was 178 nM.

What about the TGI [18] of the same molecule?
The TGI was 689 nM.

And the GI50 [19]?
Its GI50 is 573 nM.

What about the TGI [19] of the same molecule?
The TGI was 39100 nM.

And the GI50 [20]?
The GI50 was 383 nM.

And the TGI [20]?
The TGI was 32000 nM.

And the GI50 [21]?
Its GI50 is 314 nM.

And the TGI [21]?
The TGI was 1360 nM.

And the GI50 [22]?
Its GI50 is 1460 nM.

What about the TGI [22] of the same molecule?
Its TGI is 22000 nM.

And the GI50 [23]?
Its GI50 is 577 nM.

What about the TGI [23] of the same molecule?
Its TGI is greater than 51900 nM.

And the GI50 [24]?
The GI50 was 2550 nM.

What about the TGI [24] of the same molecule?
Its TGI is greater than 100000 nM.

And the GI50 [25]?
Its GI50 is 526 nM.

And the TGI [25]?
Its TGI is 14200 nM.

What about the GI50 [26] of the same molecule?
The GI50 was 211 nM.

And the TGI [26]?
Its TGI is 569 nM.

And the GI50 [27]?
Its GI50 is 434 nM.

And the TGI [27]?
Its TGI is 9260 nM.

What about the GI50 [28] of the same molecule?
Its GI50 is 987 nM.

And the TGI [28]?
Its TGI is 10700 nM.

And the GI50 [29]?
Its GI50 is 411 nM.

What about the TGI [29] of the same molecule?
The TGI was greater than 100000 nM.

What about the GI50 [30] of the same molecule?
The GI50 was 385 nM.

What about the TGI [30] of the same molecule?
The TGI was 17800 nM.
